The source of these data is US11247970B2, “Selective inhibition of gluconeogenic activity” (Dana-Farber Cancer Institute, Inc., priority 2017, dated 2022).

One data set has as its system HFD fed mice. As to the kind of experiment: Pyruvate tolerance test (PTT). As to conditions: HFD 17 weeks. The format is in vivo. How it is done:
All mice were purchased from Jackson laboratories and housed under a 12 h light/12 h dark cycle at 22° C. Before handling, mice were allowed to acclimate for at least 1 week in our animal facility. For in vivo studies with DIO mice, males 6-8 weeks old were fed HFD for the indicated time. For drug administration, SR-18292 was re-suspended in a 10% DMSO/10% Tween80/80% PBS solution at a final concentration of 6-12 mg/ml. Metformin was re-suspended in the same solution at a 20 mg/ml concentration. SR-18292 was injected via I.P. for 3 days between 4-5 pm and food was removed on day 3 at 5 pm. […] Metformin was administered via oral gavage. […] Insulin tolerance test was performed following the same dosing protocol, but mice were fasted for 4 hours after the forth injection before performing the test. Insulin was injected via I.P. (0.5 U/Kg) and blood glucose was measured every 20 minutes. Glycemia was measured by tail bleed using a glucometer (OneTouch). For all experiments, age- and body weight-matched animals were used. For protein, RNA extracts and biochemistry studies, livers were removed following each experiment and snap frozen in liquid nitrogen. For information on number of animals in each experiment please refer to FIGS. 4, 5 and S5 legends. All studies were performed according to protocols approved by Beth Israel Deaconess Medical Center's Animal Care and Use Committee.

Another data set relates to ob/ob mice. Nature of the data set: Fasting glycemia and liver lipid in leptin deficient ob/ob mice. As to conditions: diabetic leptin deficient ob/ob mice. It is filed as in vivo.
The test system of the next data set is primary hepatocytes. As to the kind of experiment: Glucose production by primary hepatocytes (glucagon or Ad-PGC-1α). The format is cell-based, mouse. Details: glucagon- and PGC-1α-mediated glucose production: dose or concentration left out as unconfirmed. Here is the method:
For measurement of acetylation, gene expression and glucose production SR-18292 ([…]) was added to cells overnight and fresh compound was added the following day for additional 3 h before collecting the cells (for total of ˜18 h treatment). Where insulin and glucagon stimulation were performed, the medium was changed to starvation medium (DMEM, 0.2% BSA, 2 mM sodium pyruvate, and 1% penicillin/streptomycin) with fresh compound for the last 3 h and cells were stimulated with either 100 nM insulin or 200 nM glucagon for an extra 1.5 h. For glucose measurements following PGC-1α over expression cells were incubated for the last 3 h in glucose-free medium (phenol-red/glucose free DMEM, 0.2% BSA, 2 mM sodium pyruvate and 20 mM sodium lactate or 10 mM glycerol in case glycerol was used as substrate). For glucose measurements following glucagon stimulation cells were incubated for the last 4 h in the same glucose-free medium that also contained glucagon (200 nM). The glucose level in the medium was measured using a glucose assay kit from Eton Bioscience Inc. by adding […] of assay buffer to […] of medium followed by 15 min incubation at 37° C. Absorbance was measured at 490 nm.
PGC-1α activates hepatic gluconeogenic gene expression, and an increase in its acetylation status reduces expression of both Pck1 and G6pc genes (Rodgers et al., 2005; Yoon et al., 2001). […] Thus, a high-throughput screen with these 252 compounds at different doses was performed. Briefly, Hepatocytes were treated with forskolin for 1.5 hours to induce the expression of both Pck1 and G6pc genes, which mimics the fasting and PGC-1α-mediated gluconeogenic response. The dose response curves were used to calculate an inhibitory activity of the compounds by determining the difference in Ct values between compound treatment and forskolin control at each dose, and provided an estimated potency of the compounds in suppressing Pck1 and G6pc (FIGS. 4, 34). […] To specifically test the inhibitory activity of the remaining small molecule positive hits on PGC-1α-mediated glucose production, adenoviruses to ectopically express PGC-1α in primary hepatocytes were used. Similar to forskolin, PGC-1α overexpression induces gluconeogenic gene expression and promotes glucose release. Primary hepatocytes were treated with the chosen positive hit compounds that could suppress gluconeogenic gene expression, and the concentration of glucose released to the culture medium was measured.

The next data set concerns Lep^ob/ob mice. Nature of the data set: Blood glucose in Lep ob/ob mice with hepatic PGC-1α knockdown. The format is in vivo. As to conditions: shPGC-1α adenovirus. Here is the method:
Virus was introduced to mice through the tail vein injection. Virus was thawed before injection and the desired amount of virus was diluted with saline to a final volume of 100 μL per mouse. Each mouse was injected with 6*10^7 pfu/g. SR-18292 treatment started on day 5 post infection.
In addition, liver toxicity, as measured by serum levels of alanine transaminase (ALT), aspartate aminotransferase (AST), lactate dehydrogenase (LDH) and bilirubin, was not observed in mice treated with SR-18292 (Table 6). […] To assess the contribution of PGC-1α in mediating the in vivo effects of SR-18292, hepatic PGC-1α in Lep^ob/ob mice was depleted using shRNA and observed a significant reduction in basal blood glucose concentrations compared to control. […] To fully assess the effects of SR-18292 on whole body glucose homeostasis and insulin resistance, a glucose tolerance test (GTT) and insulin tolerance test (ITT) were performed following the same protocol used to determine fasting blood glucose. […] As expected, insulin levels after GTT were lower in the treated group (FIG. 51). […] To test if SR-18292 chronic treatment will cause similar anti-diabetic effects, mice were treated for a period of 14 days.

Data set [1] in a line: Serum biochemistry for liver toxicity. The following applies: HFD mice. The format is in vivo. How it is done:
(§1) Serum samples were gathered from blood collected by cardiac puncture. Insulin was measured with Ultra Sensitive Mouse Insulin ELISA Kit (Crystal Chem, 90080). Kits used to measure alanine transaminase (EALT-100), aspartate transaminase (EASTR-100), lactate dehydrogenase (DLDH-100) were purchased from Bioassay Systems. Kits used to measure lactate (MAK 064), b-hydroxybutyrate (MAK 041), Triglycerides (TR0100) were purchased from Sigma. Kit used to measure cholesterol (C7510) was purchased from Pointe Scientific. Kit used to measure non-esterified fatty acids was purchased from Wako.
Serum enzymatic activities of alanine transaminase (ALT), aspartate aminotransferase (AST), lactate dehydrogenase (LDH) and bilirubin levels from mice fed high fat diet and treated with SR-18292. n=7.

A short description of data set [2]: Liver and serum lipids, metabolites and liver gene expression in treated HFD mice. It is filed as in vivo. How it is done:
Total RNA was extracted from cells or pulverized liver using TRIzol reagent (Ambion, Life Technologies), followed by cDNA preparation from 2 μg of total RNA with a High-Capacity cDNA Reverse Transcription Kit (Applied Biosystems). cDNA products were quantified by real-time PCR using Power SYBR Green PCR Master Mix (Applied Biosystems) on a CFX384 Real-Time PCR System (Bio-Rad). To calculate IC50 from C-80 dose response, curves were fit to the hill equation in a similar manner used to calculate estimated AC50 from the high-throughput qPCR screen. However, unlike the curves from the qPCR high-throughput screen, values of relative repression were used rather than of delta-Ct.
as §1

Molecules are shown by their SMILES. Entries after “also recorded” stand apart in the source; their conditions may differ.

Turning to `Cc1ccc(CN(CC(O)COc2cccc3[nH]ccc23)C(C)(C)C)cc1` (centres unmarked) [SR-18292, 1-((1H-indol-4-yl)oxy)-3-(tert-butyl(4-methylbenzyl)amino)propan-2-ol], in the data set with HFD fed mice, the “defects in glucose production relative to metformin” value was “comparable to that mediated by metformin treatment” and the “glucose levels after pyruvate injection” value is “significantly reduced”. Besides, in the data set on ob/ob mice, the fasting glycemia entry is “improved fasting glycemia” and the “lipid accumulation in liver” value is listed as “without altering lipid accumulation in liver”. Also, in the data set on primary hepatocytes (3 hr treatment), the “glucose release after short treatment” value is “no effect”. The “glucose production from pyruvate and lactate or from glycerol as substrate” value in the data set with primary hepatocytes (Ad-PGC-1α hepatocytes) is on record as “decreases glucose production”. Besides, in the data set on primary hepatocytes (isolated hepatocytes), the “glucagon- and PGC-1α-mediated glucose production” value is given as “significantly reduced”. In the data set with Lep^ob/ob mice, the “SR-18292-mediated reduction in blood glucose with reduced hepatic PGC-1α” value is on record as “blunted SR-18292-mediated reductions in blood glucose concentrations”. The “liver toxicity by serum ALT, AST, LDH and bilirubin” value in data set [1] is “not observed”. In data set [1] (serum, 45 mg/kg, n=7), this compound returned an ALT of 9.21 U/L, an AST of 29.94 U/L, a Bilirubin of 0.33 mg/dL and an LDH of 64.44 IU/L. In addition, in data set [2] (HFD 4 weeks), the “serum lactate and ketone bodies (β-hydroxybutyrate)” value is recorded as “not changed; also recorded: not altered”. In data set [2] (HFD 13 weeks), the “serum levels of TG, free fatty acids and cholesterol” value is recorded as “not significantly altered”; the “transcriptional lipid metabolic profile in liver” value is on record as “not significantly altered; also recorded: not changed”. In data set [2] (HFD 17 weeks, also after prolonged treatment), the “liver TG and cholesterol levels” value was “not changed”.
